Here are results for 2 molecules from PMC9323911, “Comparative Metabolomics Study of the Impact of Articaine and Lidocaine on the Metabolism of SH-SY5Y Neuronal Cells” (Metabolites, 2022).

Entries after “also recorded” stand apart in the source; their conditions may differ. Counter-ions that a name gives are not always drawn. Like-named read-outs stand apart in the source and are kept apart here.

The subject of experiment [1] is SH-SY5Y human neuroblastoma cells. Put plainly: resazurin cell viability assay. Format: cell-based. As to conditions: for IC50: Homo sapiens, SH-SY5Y, read-out: IC50 (cell viability). The protocol: Undifferentiated SH-SY5Y human neuroblastoma cells (ATCC® CRL-2266) were cultured in DMEM:F12 medium supplemented with 10% FBS and 1% antibiotic (100 IU/mLof penicillin and 100 μg/mL of streptomycin sulfate). Cells were grown in 75 cm^2 bottles and incubated at 37 °C under a humidified atmosphere with 5% CO2 for 48 h, until reaching semiconfluency. All experiments were performed on cells between passages 4 to 8.
To assess cell viability, the resazurin test was used. This assay evaluates the ability of viable cells to reduce resazurin (blue color) to a fluorescent, pink-colored compound, resorufin. Briefly, the cells were plated in a 96-well plate 24 h before treatment, at a density of 4 × 10^4 cells/mL. […] Each LA was solubilized in complete DMEM:F12 medium. Subsequently, the medium was removed, the wells were washed with 5 mM PBS and the cells were incubated with 10% resazurin for 4 h. At the end of this period, the absorbance was measured at 570 nm (λ1) and at 600 nm (λ2) (Multiskan™ FC Microplate Photometer, Thermofisher). The experiment was performed in triplicate and the differences between the two wavelengths (λ1–λ2) were calculated. The results were expressed in % of cell viability in relation to control and analyzed in GraphPad Prism® 6.0.
A general note: Resazurin is reduced to fluorescent resorufin, in cell work by metabolically active cells.

The subject of experiment [2] is SH-SY5Y cells. Put plainly: 1H NMR metabolic profiling of cell lipid extracts. Type of experiment: cell-based, human. As to conditions: lipid extract, vs control. Here is the method:
After reaching semiconfluence, 10 mL of cells (1 × 10^6 cells/mL) were plated on 90 mm diameter culture dishes and incubated for 24 h. […] Afterward, the medium was collected and the dishes washed with cold PBS, immediately before the solvent extraction procedure described below. Unexposed cells were used as controls. Each assay comprised duplicates of each condition and three independent assays were performed, giving a total of 6 replicates per condition.
The culture medium was collected from each plate (including cell-free medium incubated under the same conditions) in conical tubes and centrifuged at 1000× g for 10 min. Furthermore, 300 µL of the supernatant were collected for protein precipitation, as described by Kostidis et al.. Briefly, 600 µL of 100% methanol (v/v) at −80 °C were added to the collected supernatant ([…]). The mixture was kept at −20 °C for 30 min and centrifuged at 13,000× g for 20 min. The supernatant was transferred to another tube and vacuum dried (SpeedVac, Eppendorf, Hamburg, Germany). For extracting cellular metabolites, a biphasic extraction protocol (methanol:chloroform:water; 1:1:0.7) was used as previously described. The resulting polar extracts were dried under vacuum in a Speedvac concentrator, and the lipophilic extracts were dried under a nitrogen flow. All extracts were stored at −80 °C prior to NMR analysis.
For NMR analysis, dried aqueous and lipid extracts were dissolved, respectively, in 600 μL of deuterated phosphate buffer (PBS 100 mM, pH 7.4) containing 0.1 mM 3-(trimethylsilyl) propionic acid (TSP-d4), and 600 μL of deuterated chloroform containing 0.03% tetramethylsilane (TMS). After transferring 550 μL of each sample to 5 mm NMR tubes, analysis was performed on a Bruker Avance III HD 500 NMR spectrometer (University of Aveiro, Portuguese NMR Network) operating at 500.13 MHz for ^1H observation, at 298 K. Standard 1D ^1H spectra (pulse programs ‘noesypr1d’ and ‘zg’ for aqueous and lipid samples, respectively) were recorded with 32 k points, 7002.80 Hz spectral width, a 2 s relaxation delay and 512 scans. […]. Two-dimensional NMR spectra, namely, ^1H-^1H TOCSY, J-resolved and ^1H-^13C HSQC spectra, were also recorded for selected samples to aid metabolite identification. Signal assignment was based on matching 1D and 2D spectral information to reference spectra available in Chenomx 9.0 (Edmonton, AB, Canada), BBIOREFCODE-2–0–0 (Bruker Biospin, Rheinstetten, Germany) and HMDB.
To provide a quantitative measurement of metabolic variations, spectral integration and total area normalization of selected signals (vide Supplementary Table S1) were carried out in Amix-Viewer 3.9.15 (Bruker Biospin, Rheinstetten, Germany). For each metabolite, the percentage of variation (or fold change) in exposed samples was calculated relative to respective controls, along with the effect size (ES) and statistical significance (p-value). The variations with larger magnitude (|ES| > 0.8) were expressed in a heatmap. Loadings profiles and heatmap figures were generated using the R software version 4.1.3 (R Core Team (2020). R: A language and environment for statistical computing. R Foundation for Statistical Computing, Vienna, Austria. URL http://www.R-project.org/ accessed 23 May 2022).

As usually defined, the IC50 is the concentration that inhibits the measured activity by half. For the molecule `CCCNC(C)C(=O)Nc1c(C)csc1C(=O)OC` (stereo not drawn) [ATC, Articaine hydrochloride], in experiment [1] (24 h exposure), the “IC10 (concentration reducing cell viability by 10%)” value was 1.2 mM and the IC50 turned out to be 3 ± 0.2 mM. In experiment [1] (20 min, 20 min exposure), the half-maximal inhibitory concentration (IC50) is greater than 10 mM. The IC50 in experiment [1] (1 h exposure) was greater than 10 mM. The IC50 in experiment [1] (4 h exposure) turned out to be 5.4 ± 0.3 mM. For the same molecule, the IC50 in experiment [1] (shortest exposure durations (20 min and 1 h)) was greater than 10 mM. In experiment [2] (IC50, 24 h), the cholesterol level result was “significant decrease”, the cholesteryl esters level result was “prominent increase; also recorded: increased”, the phospholipids level result was “decreases” and the triglycerides level entry is recorded as “decreases”.
Regarding `CCN(CC)CC(=O)Nc1c(C)cccc1C` [LDC, lidocaine hydrochloride], the “IC10 (concentration reducing cell viability by 10%)” value in experiment [1] (24 h exposure) turned out to be 1.2 mM. For the same molecule, the IC50 in experiment [1] (20 min) was 7.3 ± 0.3 mM; in experiment [1] (1 h), 7.4 ± 0.3 mM; in experiment [1] (4 h), 5.7 ± 0.2 mM; in experiment [1] (24 h), 3.6 mM; in experiment [1], roughly 7 mM. Further, in experiment [2] (24 h), the “phosphatidylcholine (PtC) level” value is listed as “decrease”. Moreover, in experiment [2] (IC50, 24 h), the triglycerides level result is recorded as “accumulated; also recorded: increased”.
